Laboratory results taken from PubChem BioAssay (NCI).
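Growth conditions: 96-well plates. Treatment: test compound, 48 hours, 5 concentrations. Analysis: linear interpolation between bracketing concentrations; unreached endpoints set to highest concentration. GI50 marks 50% less growth. TGI: total growth inhibition.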

Tests used:
Assay in all cases: NCI-60 cell line screen, 48 h
MOLT-4 leukemia = system: MOLT-4 leukemia
HCC-2998 colon = system: HCC-2998 colon
HL-60(TB) leukemia = system: HL-60(TB) leukemia
RXF 393 renal = system: RXF 393 renal
NCI/ADR-RES ovarian = system: NCI/ADR-RES ovarian
MDA-MB-435 = system: MDA-MB-435
OVCAR-8 ovarian = system: OVCAR-8 ovarian
NCI-H460 lung = system: NCI-H460 lung
K-562 leukemia = system: K-562 leukemia
NCI-H23 lung = system: NCI-H23 lung
NCI-H522 lung = system: NCI-H522 lung
HOP-62 NSCLC = system: HOP-62 NSCLC
LOX IMVI melanoma = system: LOX IMVI melanoma
A549 NSCLC = system: A549 NSCLC
M14 melanoma = system: M14 melanoma
OVCAR-4 ovarian = system: OVCAR-4 ovarian
UACC-62 melanoma = system: UACC-62 melanoma
COLO 205 colon = system: COLO 205 colon
UO-31 renal = system: UO-31 renal
A498 renal = system: A498 renal
BT-549 breast = system: BT-549 breast
UACC-257 melanoma = system: UACC-257 melanoma
KM12 colon = system: KM12 colon
NCI-H226 lung = system: NCI-H226 lung
ACHN renal = system: ACHN renal
HCT-116 colon = system: HCT-116 colon
U251 CNS = system: U251 CNS
786-0 renal = system: 786-0 renal
MCF7 breast = system: MCF7 breast
SK-OV-3 ovarian = system: SK-OV-3 ovarian
HT29 colon = system: HT29 colon
OVCAR-3 ovarian = system: OVCAR-3 ovarian
MDA-MB-231 breast = system: MDA-MB-231 breast
SK-MEL-5 melanoma = system: SK-MEL-5 melanoma
SR leukemia = system: SR leukemia
DU-145 prostate = system: DU-145 prostate

Structure (SMILES): CC1(C)C(=O)/C(=C\c2ccccn2)C[C@]2(C)[C@H]3CC[C@@H]4[C@@H](C(=O)/C=C/c5ccccn5)CC[C@@]4(C)[C@]3(C)CC[C@@H]12
- GI50 (MOLT-4 leukemia): 0.537 µM
- TGI (MOLT-4 leukemia): > 100 µM
- GI50 (HCC-2998 colon): 1.8 µM
- TGI (HCC-2998 colon): 3.49 µM
- GI50 (HL-60(TB) leukemia): 0.486 µM
- TGI (HL-60(TB) leukemia): 3.95 µM
- GI50 (RXF 393 renal): 0.859 µM
- TGI (RXF 393 renal): 2.26 µM
- GI50 (NCI/ADR-RES ovarian): 1.47 µM
- TGI (NCI/ADR-RES ovarian): 5.93 µM
- GI50 (MDA-MB-435): 0.296 µM
- TGI (MDA-MB-435): 0.885 µM
- GI50 (OVCAR-8 ovarian): 0.493 µM
- TGI (OVCAR-8 ovarian): > 100 µM
- GI50 (NCI-H460 lung): 1.97 µM
- TGI (NCI-H460 lung): 4.2 µM
- GI50 (K-562 leukemia): 0.347 µM
- TGI (K-562 leukemia): > 100 µM
- GI50 (NCI-H23 lung): 2 µM
- TGI (NCI-H23 lung): 4.63 µM
- GI50 (NCI-H522 lung): 2.01 µM
- TGI (NCI-H522 lung): 4.52 µM
- GI50 (HOP-62 NSCLC): 2.14 µM
- TGI (HOP-62 NSCLC): 5.82 µM
- GI50 (LOX IMVI melanoma): 0.232 µM
- TGI (LOX IMVI melanoma): 0.565 µM
- GI50 (A549 NSCLC): 2.02 µM
- TGI (A549 NSCLC): > 28.2 µM
- GI50 (M14 melanoma): 0.907 µM
- TGI (M14 melanoma): 3.14 µM
- GI50 (OVCAR-4 ovarian): 2.41 µM
- TGI (OVCAR-4 ovarian): > 100 µM
- GI50 (UACC-62 melanoma): 1.19 µM
- TGI (UACC-62 melanoma): 2.58 µM
- GI50 (COLO 205 colon): 1.76 µM
- TGI (COLO 205 colon): 4.38 µM
- GI50 (UO-31 renal): 0.787 µM
- TGI (UO-31 renal): 2.1 µM
- GI50 (A498 renal): 1.67 µM
- TGI (A498 renal): 3.11 µM
- GI50 (BT-549 breast): 1.38 µM
- TGI (BT-549 breast): 4.26 µM
- GI50 (UACC-257 melanoma): 1.64 µM
- TGI (UACC-257 melanoma): 5.47 µM
- GI50 (KM12 colon): 1.67 µM
- TGI (KM12 colon): 3.21 µM
- GI50 (NCI-H226 lung): 1.8 µM
- TGI (NCI-H226 lung): 4.85 µM
- GI50 (ACHN renal): 0.479 µM
- TGI (ACHN renal): 1.69 µM
- GI50 (HCT-116 colon): 0.263 µM
- TGI (HCT-116 colon): 0.795 µM
- GI50 (U251 CNS): 0.749 µM
- TGI (U251 CNS): 2.08 µM
- GI50 (786-0 renal): 1.2 µM
- TGI (786-0 renal): 2.77 µM
- GI50 (MCF7 breast): 0.405 µM
- TGI (MCF7 breast): 3.89 µM
- GI50 (SK-OV-3 ovarian): 3.89 µM
- TGI (SK-OV-3 ovarian): > 100 µM
- GI50 (HT29 colon): 1.05 µM
- TGI (HT29 colon): 3.46 µM
- GI50 (OVCAR-3 ovarian): 0.538 µM
- TGI (OVCAR-3 ovarian): 1.85 µM
- GI50 (MDA-MB-231 breast): 0.532 µM
- TGI (MDA-MB-231 breast): 2.53 µM
- GI50 (SK-MEL-5 melanoma): 1.51 µM
- TGI (SK-MEL-5 melanoma): 2.89 µM
- GI50 (SR leukemia): 0.342 µM
- TGI (SR leukemia): 2.11 µM
- GI50 (DU-145 prostate): 1.76 µM
- TGI (DU-145 prostate): 3.23 µM
